This is an account of results in PMC7411710, “Biocatalysis of D,L-Peptide Nanofibrillar Hydrogel” (Molecules, 2020).

One data set can be described thus: oscillatory rheometry. The class given is physicochemical. The settings on record: 10 mM; 1 Hz; 25 °C. As to the method:
His–Leu–^DLeu–Ile–His–Leu–^DLeu–Ile (Scheme 1) was synthesized in solid phase and purified by reverse-phase HPLC, following published procedures. Peptide identity and purity was confirmed by ^1H-NMR and electrospray ionization (ESI)-MS (see Supplementary Materials). […] A pH change to neutral was then used to trigger fibrillization, which, at higher concentrations, led to the formation of self-supportive hydrogels, with a minimum gelling concentration (mgc) of 10 mM. The viscoelastic properties of the hydrogel were assessed by oscillatory rheometry (see Supplementary Materials). At mgc, the peptide gelled immediately and reached a G′ of 1 kPa, which remained stable over time. Frequency sweeps confirmed G′ > G″, with both values being independent of applied frequency, as expected for a stable hydrogel. Stress sweeps confirmed a linear viscoelastic region until 1 Pa, with a gel-to-sol transition occurring above 10 Pa.
Dynamic time sweep rheological analysis was conducted on a Malvern Kinexus Ultra Plus Rheometer (Alfatest, Milan, Italy) with a 20-mm stainless-steel parallel plate geometry. […] Samples were prepared in situ and immediately analyzed with a gap of 1 mm. Time sweeps were recorded using a frequency of 1 Hz and a controlled stress of 0.50 Pa. Frequency sweeps were recorded using a controlled stress of 0.50 Pa, and then stress sweeps were recorded using a frequency of 1 Hz.

A short description of data set [1]: water solubility (observation). The class given is physicochemical. The conditions noted are these: neutral pH.
For data set [2] the following is noted: cited from earlier work. An excerpt:
However, at present, it is still not possible to predict exactly the performance of a de novo designed peptide. Amongst the various approaches to achieve a self-assembling short peptide, an attractive strategy features the inclusion of both D- and L-amino acids at specific positions along a heterochiral sequence, whereby nanostructured hydrogels can be formed even with just three amino acids, while their homochiral isomers typically precipitate in water. These supramolecular systems feature amphipathic assemblies, whereby the different stereoconfiguration allows displaying hydrophobic s ...

The conditions of data set [3]: pH 7.4; without Zn2+; cited from earlier work. The text has this:
Table 2 Comparison of catalytic performance with literature data on short peptides without Zn^2+. | column: kcat/KM (s^−1M^−1)

Non-standard residues stand in square brackets, D forms with d. Residues, ends and D or L forms follow the SMILES beside them.

On to `CC[C@H](C)[C@H](NC(=O)[C@@H](CC(C)C)NC(=O)[C@H](CC(C)C)NC(=O)[C@H](Cc1c[nH]cn1)NC(=O)[C@@H](NC(=O)[C@@H](CC(C)C)NC(=O)[C@H](CC(C)C)NC(=O)[C@@H](N)Cc1c[nH]cn1)[C@@H](C)CC)C(=O)O` [His–Leu–^DLeu–Ile–His–Leu–^DLeu–Ile] (H-HL[dL]IHL[dL]I-OH), for which, in the data set “oscillatory rheometry”, the “gel-to-sol transition (stress sweep)” value is on record as “above 10 Pa”. The water solubility result in data set [1] is given as “limited water solubility”. In the case of His–^DPhe–^DPhe, the “concentration of hydrogel formation” value in data set [2] was 50000 µM. “HSGQQKFQFQFEQQ [self-assembling His peptide, literature catalyst]”: the kcat/KM in data set [3] was 0.09 s^−1M^−1. With “H2KLLLAAA(Nε-palmytoyl)K-NH2 [peptide amphiphile reported by Guler and Stupp]”, the kcat/KM in data set [3] is given as 20 s^−1M^−1.
